The values that follow come from patent publication US12178821B2, “Combination therapies for the treatment of cancer” (Curis, Inc., priority 2021, dated 2024).

One series relates to F-36P. Nature of the series: CellTiter Glo cell viability assay, GI50, 72 hrs. It counts as cell-based. Here is the method: (§1) CellTiter Glo cell viability assay was used to evaluate the antitumor effects of Compound 1 in combination with AML SOC drugs daunorubicin, Ara-C, decitabine, azacitidine and venetoclax in FLT3-WT AML cell lines THP-1, F-36P, OCl-AML2 and GDM-1. GI50 (the concentration for 50% of maximal inhibition of cell proliferation) was determined for each drug in AML cell lines.
(§2) Cells were treated for 72 hrs. Relative cell viability was measured by CellTiter Glo assay (Promega, Madison, WI) at 0 and at 72 hrs. GI50 was calculated using GraphPad Prism 8.0 software.
Background: Cellular ATP, detected with luciferase, serves as a proxy for viable cell number.

The subject of a further series is GDM-1. The experiment in a line: CellTiter Glo cell viability assay, GI50, 72 hrs. It is filed as cell-based. Here is the method:
as §1, §2

A further series has as its system OC1-AML2. Nature of the series: CellTiter Glo cell viability assay, GI50, 72 hrs. It is filed as cell-based. Here is the method:
as §1, §2

The next series deals with THP-1. Nature of the series: CellTiter Glo cell viability assay, GI50, 72 hrs. It is filed as cell-based. Here is the method:
as §1, §2

For series [1] the following is noted: concentration used in the combination experiments; cited from earlier work.
The test system of series [2] is FLT3-WT AML cell lines THP-1, F-36P, OCl-AML2 and GDM-1. Nature of the series: CellTiter Glo combination experiments summarised over the cell line panel. It is filed as cell-based. Conditions: 4 FLT3-WT AML cell lines, 96 hrs, clinically relevant drug concentration. Here is the method: CellTiter Glo cell viability assay was used to evaluate the antitumor effects of Compound 1 in combination with AML SOC drugs daunorubicin, Ara-C, decitabine, azacitidine and venetoclax in FLT3-WT AML cell lines THP-1, F-36P, OCl-AML2 and GDM-1. GI50 (the concentration for 50% of maximal inhibition of cell proliferation) was determined for each drug in AML cell lines. Either GI50 (below peak plasma concentration) or peak plasma concentration (if GI50 was higher than peak plasma concentration) of each drug was used as clinically relevant concentration for combination experiments.
Cells were treated continuously with clinically relevant drug concentration for 96 hrs. Relative cell viability was measured by CellTiter Glo assay (Promega, Madison, WI) at 0 and at 96 hrs according to manufacturer's instructions. All values are presented as mean±SE. Cell viability assay data were analyzed with one-way ANOVA. P values less than 0.05 were considered significant. Statistical analysis was performed using GraphPad Prism 8.0 software. + Less than 50% growth inhibition, p<0.05; ++ 50-100% growth inhibition, p<0.05; +++ Induction of cell death (cytotoxic effect), p<0.05; NS, not significant; ND, not defined. *Venetoclax resistant cell line, **Azacitidine/Decitabine resistant cell line. Clinically relevant conc (peak plasma conc): Compound 1-10 μM; Venetoclax—1 μM; and Azacitidine—4 μM.

[3] abbreviates: F-36P cells, treated for 72 hrs, CellTiter Glo, read-out: GI50.
Setting [4] is: OC1-AML2 cells, treated for 72 hrs, CellTiter Glo, read-out: GI50.
The mark [5] stands for this setting: Homo sapiens, GDM-1 cells, treated for 72 hrs, CellTiter Glo, read-out: GI50.
[6] abbreviates: Homo sapiens, THP-1 cells, treated for 72 hrs, CellTiter Glo, read-out: GI50.

Structures are written as SMILES. “Also recorded” adds a separate entry of the source. Where two headings read alike, the source gives them in different places.

As a reminder, the GI50 is the concentration that inhibits growth by half. As to `Nc1ccn([C@@H]2O[C@H](CO)[C@@H](O)[C@@H]2O)c(=O)n1` [Ara-C], the GI50 came out at 0.15 µM in the series on F-36P (setting [3]); 0.005 µM in the series with GDM-1 (GDM-1 cells, treated for 72 hrs, CellTiter Glo, read-out: GI50); 4 µM with OC1-AML2 (setting [4]); 0.15 µM in the series with THP-1 (THP-1 cells, treated for 72 hrs, CellTiter Glo, read-out: GI50).
`Nc1ncn([C@@H]2O[C@H](CO)[C@@H](O)[C@H]2O)c(=O)n1` [Azacitidine]: the GI50 in the series on F-36P (setting [3]) is 4 µM; in the series on GDM-1 (setting [5]), 2 µM; in the series with OC1-AML2 (setting [4]), 30 µM; in the series with THP-1 (setting [6]), 3 µM. Besides, in the series on OC1-AML2 (OCl-AML2), the “resistance of the cell line to the treatment” value is given as “resistant”. Also, in series [1], the “Clinically relevant conc (peak plasma conc)” value (shortened to “Clinically relevant conc”) was 4 µM.
Regarding `Cc1cc(-c2nc(C(=O)Nc3cc4oc(N5CCOCC5)nc4nc3N3CC[C@@H](O)C3)co2)ccn1` [Compound 1], the GI50 is above 20 µM in the series with F-36P (setting [3]), above 20 µM with GDM-1 (setting [5]), 13 µM with OC1-AML2 (setting [4]) and above 20 µM with THP-1 (setting [6]). In series [2], the “antitumor effect of the combination over the cell line panel, in words” value is reported as “potentiated antitumor effects of azacitidine in 3 of 4 FLT3-WT AML cell lines; also recorded: significantly potentiated antitumor effects of azacitidine+venetoclax in all AML FLT3-WT cell lines”. Moreover, the “Clinically relevant conc” value in series [1] was 10 µM.
For `COc1cccc2c1C(=O)c1c(O)c3c(c(O)c1C2=O)C[C@@](O)(C(C)=O)C[C@@H]3O[C@H]1C[C@H](N)[C@H](O)[C@H](C)O1` [Daunorubicin], the GI50 with F-36P (72 h) came to 0.1 µM; in the series with GDM-1 (Homo sapiens, GDM-1, 72 h), 0.01 µM; in the series on OC1-AML2 (72 h), 0.005 µM; in the series on THP-1 (Homo sapiens, THP-1, 72 h) it was 0.005 µM.
Turning to `Nc1ncn([C@H]2C[C@H](O)[C@@H](CO)O2)c(=O)n1` [Decitabine], the concentration for 50% growth inhibition (GI50) came out at 0.2 µM in the series on F-36P (72 h); 0.08 µM in the series with GDM-1 (Homo sapiens, GDM-1, 72 h); 18 µM with OC1-AML2 (72 h); 0.15 µM with THP-1 (Homo sapiens, THP-1, 72 h).
Take `CC1(C)CCC(CN2CCN(c3ccc(C(=O)NS(=O)(=O)c4ccc(NCC5CCOCC5)c([N+](=O)[O-])c4)c(Oc4cnc5[nH]ccc5c4)c3)CC2)=C(c2ccc(Cl)cc2)C1` [Venetoclax]: the GI50 turned out to be 18 µM in the series with F-36P (setting [3]), 0.005 µM in the series on GDM-1 (setting [5]), 0.002 µM in the series on OC1-AML2 (setting [4]) and 18 µM in the series on THP-1 (setting [6]). Also, the “Clinically relevant conc” value in series [1] is 1 µM.
